Measurements published in patent US20120219636A1, “ENHANCED REMOVAL OF VIRUSES FROM FRESH PRODUCE” (THE OHIO STATE UNIVERSITY, priority 2011, published 2012).
Where two headings read alike, the source gives them in different places.

What was measured:
MNV-1 [1] = experiment: Sanitization wash of MNV-1 inoculated fresh produce, viral survivors by plaque assay; design: species or system murine norovirus; conditions: for virus reduction: 2 min wash
VSV [2] = format: cell-based, vesicular stomatitis virus (VSV) Indian strain
foodborne viruses = conditions: cited from earlier work
VSV [3] = test system: VSV; design: species or system vesicular stomatitis virus (VSV) Indian strain; conditions: 10,000 ppm; 37° C.; 72 hours
MNV-1 [4] = experiment: Transmission electron microscopy of purified MNV-1 after surfactant treatment; design: species or system murine norovirus
MNV-1 [5] = format: cell-based, murine norovirus
[6] = 200 ppm surfactant, 37° C., 72 hours

NP40
virus reduction compared with tap water or chlorine solution (MNV-1 [1]; four types of fresh produce, 50 ppm surfactant alone): increased virus reduction than did tap water or chlorine solution
virus reduction (VSV [2]): 10. logs

OCl [sodium hypochlorite]
additional virus reduction over tap water washing (foodborne viruses): 0.48 logs
virus reduction (foodborne viruses): less than 1 log

Tween 20
virus reduction (VSV [2]; [6]): 2.7 logs

CC(=O)OO [peracetic acid]
additional reduction over tap water washing (foodborne viruses): 0.77 logs

Triton X-100
additional virus reduction than that of the chlorine solution (MNV-1 [1]): ~1 log
virus reduction (VSV [2]; [6]): 6.7 logs

CCCCCCCCCCCCOS(=O)(=O)[O-].[Na+] [SDS, sodium dodecyl sulfate]
damage to VSV virus particles (electron microscopy) (VSV [3]): viral envelope was damaged and the shape of VSV was severely distorted
damage to MNV-1 virus particles (electron microscopy) (MNV-1 [4]): outer capsid of the MNV-1 was severely damaged and aggregated
enhancement of efficiency of virus reduction over traditional sanitizers (chlorine solution alone) (MNV-1 [1]; fresh produce): 100 fold
virus reduction (MNV-1 [1]; lettuce, 50 ppm surfactant alone): 2.26 logs
virus reduction (MNV-1 [1]; raspberries, 50 ppm surfactant alone): 2.63 logs
virus reduction (MNV-1 [1]; strawberries, 50 ppm surfactant alone, room temperature): 3.14 logs
virus reduction (MNV-1 [1]; strawberries, 100 ppm SDS alone): 3.41 logs
virus reduction (MNV-1 [1]; strawberries, 200 ppm SDS alone): 3.12 logs
virus reduction (MNV-1 [1]; strawberries, 1,000 ppm SDS alone): 3.51 logs
virus reduction (VSV [2]; [6]): 7.5 logs
virus reduction (VSV [2]; 200 ppm, 37° C., 4 hours): 5 logs
virus inactivation confirmed by plaque assay (VSV [2]; purified VSV, 10,000 ppm, 37° C., 72 hours): completely inactivated
virus inactivation confirmed by plaque assay (MNV-1 [5]): completely inactivated
reduction in MNV-1 titer (MNV-1 [5]; 1,000 ppm surfactant, 37° C., 72 hours): highest reduction in MNV-1 titer
virus reduction (MNV-1 [5]; 10,000 ppm surfactant, 37° C., 72 hours): almost completely inactivated
